The structures appear in SMILES notation. Where two headings read alike, the source gives them in different places.

Data set [1] relates to white mice. The data set is described as follows: Animal toxicity bioassay (acute toxicity, LD50). The class given is in vivo. Particulars: intraperitoneal injection, observed 14 days.
For data set [2], the system named is human breast cancer cells (ATCC HTB123). Description: Cytotoxicity assay (MTS/PMS), growth inhibition of human breast cancer cells. The class given is cell-based. Further details: concentration or dose not given beside the values. Particulars: approximately 48 hours growth with test compound. The procedure: The activity in human breast cancer of the novel compounds (as earlier reported) was realized by the following procedure which determines the inhibitory effect of test samples on the growth of human breast cancer cells.
(ATCC HTB123) The HTB123 cells are grown in RPMI 1640 media+10% Fetal bovine serum+4.5 g/L glucose+10 mM HEPES+1.0 mM sodium pyruvate+1% Antibiotic/Antimycotic for approximately 48 hours at 37° C./5% CO2 in the presence of the test compound.
Growth/Non-Growth of the cells (e.g., cell density) is determined using Promega's MTS/PMS assay system. MTS (3-(4,5-dimethylthiazol-2-yl)-5-(3-carboxymethoxyphenyl)-2-(4-sulfophenyl)-2H-tetrazolium, inner salt) is an aqueous compound that is reduced to soluble formazan by the presence of NADH formed by dehydrogenases present within the HTB123 cells. The absorbance of the formazan can be measured at 490 nm and is directly proportional to the number of living cells present in the culture. PMS (Phenazine Methosulfate) is added an electron coupling reagent and greatly increases the rate of reduction.
To facilitate a full understanding of the procedure the following definitions are offered:
Test wells—wells containing test sample and Diluted HTB 123 cells
Test values—absorbance of test wells
Blank wells—wells containing test sample and HTB 123 media (HHTB2-01S); used to obtain background absorbance due to test sample
Blank values—absorbance of blank wells.
Negative Control—maximal cell growth; results of test samples will be expressed as a percent of the Negative Control
Positive Control—known inhibitor of HTB123 cells; used to validate assay system
Matrix—solvent that the samples are prepared/diluted in
Assay samples of similar origin and matrix (e.g., methanol extraction, methylene chloride extraction, water soluble samples, etc.) together on the same plate in order to reduce the number of steps performed per plate.
Blank values will be determined for each sample to account for any color contribution due to the sample itself. These blank wells must contain the same amount of sample plus HTB123 media (no cells). After completion of MTS/PMS reaction blank values will be subtracted from the test value to obtain a net absorbance that will be used to calculate cell density.
All results are based upon a comparison to the Negative Control value of the plate. The Negative Control must contain the same amount of matrix (e.g., solvent) to offset any destructive effect the matrix may have on the growth of the HTB123 cells (allows for baseline values to be set).
For most samples, a HTB123 cell growth (diluted two to four-fold, depending upon the appearance of the inoculum*) of approximately 48 hours followed by and incubation of 3 hours with the MTS/PMS Reagent is optimal.
*Due to the nature of the HTB123 cells it is very difficult to obtain accurate cell densities. Continuation of the HTB123 cell line typically consists of the dilution of mature cells at two or three-fold into fresh media and growth at 37° C./5% CO2 for two to three days.
In order to establish the accuracy of this assay a Positive Control consisting of 50 μM Methotrexate should […] 90% of the Negative Control (HTB123 cells are somewhat resistant to methotrexate) is utilized.

Data set [3] in a line: Solubility in solvents and water. The class given is physicochemical. The following applies: for Solubility in organic solvents: organic solvents as listed.
A short description of data set [4]: Animal toxicity bioassay (acute toxicity, LD50). It is filed as in vivo. Particulars: both sexes, mouse, in vivo, ip, white mice, intraperitoneal injection, observed 14 days.
Data set [5] is described as follows: Stability in solution. It is filed as physicochemical. Particulars: solution heated or stored for a long time; decomposes with formation of OF-12.
The conditions of data set [6]: background statement; cited from earlier work.
Data set [7] relates to white mice. Particulars: same bioassay system (JZKEDZ 6,1,1980); cited from earlier work.
[8] abbreviates: read-out: LD50 (animal toxicity).

For `COC(=O)/C(=C/C(=O)c1ccccc1)NN=C1c2ccccc2-c2ccccc21` [1F-04, 2-(N′-Fluoren-9-ylidene-hydrazino)-4-oxo-4-phenyl-but-2-enoic acid methyl ester], the “LD50” value in data set [1] is given as above 1000 mg/kg. Besides, in data set [2], the “Activity (ATCC HTB123)” value amounted to 93%.

For the compound `COC(=O)C1(O)C(C(=O)c2ccc(C)cc2)=C(O)C(=O)N1c1ccc(C)cc1C` (centres unmarked) [1F-07, 1-(2,4-Dimethyl-phenyl)-2,4-dihydroxy-3-(4-methyl-benzoyl)-5-oxo-2,5-dihydro-1H-pyrrole-2-carboxylic acid methyl ester], in data set [3], the “Solubility in organic solvents” value is “highly soluble in DMSO, acetonitrile, slightly soluble in dichloroethane, benzene, insoluble in hexane tetrachloromethane” and the Solubility in water entry is reported as “insoluble”. For the same compound, the LD50 at 14 days in data set [4] (setting [8]) is above 500 mg/kg. Further, the “percent activity against human breast carcinoma” value (shortened to “percent activity”) in data set [2] is 100%.

With `COc1ccc(C(=O)C(=NNc2ccccc2)C(=O)C(=O)O)cc1` [3F-10, 4-(4-Methoxy-phenyl)-2,4-dioxo-3-(phenyl-hydrazono)-butyric acid], in data set [3], the “Solubility in organic solvents” value is reported as “highly soluble in DMSO, DMFA, slightly soluble in chloroform, dichloroethane; insoluble in hexanes”. Besides, in data set [4] (setting [8]), the LD50 at 14 days was below 750 mg/kg. In addition, the “percent activity” value in data set [2] came out at 100%.

Turning to `CCOC(=O)C(=O)C(=NNc1ccccc1)C(=O)c1ccc(Cl)cc1` [3F-11, 4-(4-Chloro-phenyl)-2,4-dioxo-3-(phenyl-hydrazono)-butyric acid ethyl ester], the LD50 at 14 days in data set [4] (setting [8]) is above 2000 mg/kg. Besides, the “percent activity” value in data set [2] was 100%.

In the case of `COc1c(F)c(F)c(C(=O)C=C(O)C(=O)O)c(F)c1F` [3F-15, 2-Hydroxy-4-oxo-4-(2,3,5,6-tetrafluoro-4-methoxy-phenyl)-but-2-enoic acid], in data set [4] (setting [8]), the LD50 at 14 days is above 200 mg/kg. In addition, the “percent activity” value in data set [2] was found to be 100%.

For `Cc1ccc(C(=O)C2=NN(c3ccccc3)C(=O)C2(O)O)cc1` [3F-16, 4,4-Dihydroxy-5-(4-methyl-benzoyl)-2-phenyl-2,4-dihydro-pyrazol-3-one], in data set [3], the “Solubility in organic solvents” value was “highly soluble in DMSO, dioxane” and the Solubility in water result is given as “insoluble”. The 50% lethal dose (LD50) at 14 days in data set [4] (setting [8]) is above 500 mg/kg. For the same compound, in data set [2], the “percent activity” value turned out to be 100%.

With `CCOc1ccc(C(Cl)=CC(=NN=C2c3ccccc3-c3ccccc32)C(=O)OC)cc1` [3F-19, 4-Chloro-4-(4-ethoxy-phenyl)-2-(fluoren-9-ylidene-hydrazono)-but-3-enoic acid methyl ester], the LD50 at 14 days in data set [4] (read-out: LD50) was above 200 mg/kg. The “Activity (ATCC HTB123)” value in data set [2] stood at 100%.

For the compound `COC(=O)C(=CC(=O)C(C)(C)C)NN=C1c2ccccc2-c2ccccc21` [OF-06, 2-(N′-Fluoren-9-ylidene-hydrazino)-5,5-dimethyl-4-oxo-hex-2-enoic acid methyl ester], in data set [3], the “Solubility in organic solvents” value was “highly soluble in DMSO, DMFA, dichloroethane, acetonitrile, slightly soluble in ethanol, tetrachloromethane, insoluble in hexane” and the Solubility in water result is reported as “insoluble”. In data set [2], the “percent activity” value was 100%.

For `CCOc1ccc(C(=O)CC(O)(NN=C2c3ccccc3-c3ccccc32)C(=O)OC)cc1` (centres unmarked) [OF-13, 4-(4-Ethoxy-phenyl)-2-(N′-fluoren-9-ylidene-hydrazino)-2-hydroxy-4-oxo-butyric acid methyl ester], in data set [3], the “Solubility in organic solvents” value was “highly soluble in DMSO, DMFA, dichloroethane, acetonitrile, insoluble in hexane”. Moreover, the “LD50” value in data set [1] is above 1500 mg/kg. Besides, the Stability in solutions result in data set [5] was “not stable in solutions”. Besides, the “Activity (ATCC HTB123)” value in data set [2] was 100%.

For the compound `COC(=O)/C(=C/C(=O)c1ccccc1)N/N=C(\C)c1ccc(Cl)cc1` [OF-20, 2-{N′-[1-(4-Chloro-phenyl)-ethylidene]-hydrazino}-4-oxo-4-phenyl-but-2-enoic acid methyl ester], in data set [2], the “Activity (ATCC HTB123)” value was 83%.

With `CC(=O)O[C@H]1C(=O)[C@@]2(C)[C@H]([C@H](OC(=O)c3ccccc3)[C@]3(O)C[C@H](OC(=O)[C@H](O)[C@@H](NC(=O)c4ccccc4)c4ccccc4)C(C)=C1C3(C)C)[C@]1(OC(C)=O)CO[C@@H]1C[C@@H]2O` [Taxol], the Solubility in water entry in data set [6] was “insoluble in water”. Besides, the “intraperitoneal LD50 dose in mice” value in data set [7] was 218 mg/kg.

Values taken from US6703426B1, “Treatment of breast cancer” (University of Central Florida, priority 2001, dated 2004).
